Assay results published in ChEMBL document CHEMBL1122992, “Phosphorus-nitrogen compounds. 26. Phosphaminimides. 2. 2,2'-Phosphinylidenebis(1,1,1-trimethylhydrazinium) iodide inner salts as agents affecting ganglionic transmission” (J Med Chem, 1985).

tested on: Rattus norvegicus; test: LD50 values was measured by using probit analysis method in rats; type: ADME, organism-based; conditions: in vivo

Row | SMILES | LD50
1 | C[N+](C)(C)N=P([O-])(N[N+](C)(C)C)Oc1ccccc1.[I-] (stereo unspecified) | ~ 15 ug ml-1
2 | C[N+](C)(C)NP(=O)(N[N+](C)(C)C)Oc1ccccc1.[I-].[I-] | 2.37 µg/mL
3 | C[N+](C)(C)NP(=O)(N[N+](C)(C)C)c1ccccc1.[I-].[I-] | 2.15 µg/mL
4 | C[N+](C)(C)[N-]P(=O)(N[N+](C)(C)C)c1ccccc1.[I-] (stereo unspecified) | ~ 15 ug ml-1
5 | C[N+](C)(C)N=P([O-])(N[N+](C)(C)C)c1ccccc1.[I-] (stereo unspecified) | ~ 15 ug ml-1
6 | C[N+](C)(C)[N-]P(=O)(N[N+](C)(C)C)Oc1ccccc1.[I-] (stereo unspecified) | 15 µg/mL
